Usually pIC50 stands for −log10 of the IC50, conventionally taken in molar units.

The test system of experiment [1] is T47D (PI3Kα-H1047R) cell line. As to the kind of experiment: HTRF phospho-AKT(S473) cell assay in T47D cells. It is filed as cell-based, human. As to conditions: Homo sapiens; HTRF phospho-AKT(S473), T47D (PI3Kα-H1047R) cells, 2 hours compound incubation. In outline: (§1)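 Cells plated overnight (T47D in RPMI/10% FBS/0.2 units/mL insulin; SKBR3 in McCoy's 5A/10% FBS), then given 12-point 1:3 compound series (top 5 μM T47D, 10 μM SKBR3; ≤0.5% DMSO) for 2 h at 37° C. SKBR3 stimulated with 70 ng/ml PDGF-BB for final 15 min. Lysate pAKT(S473) by HTRF; IC50 calculated.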

In experiment [2] the test system is SKBR3 (PI3Kα-Wild Type) cell line. Put plainly: HTRF phospho-AKT(S473) cell assay in SKBR3 cells. The note with it: Homo sapiens, SK-BR-3; HTRF phospho-AKT(S473), SKBR3 (PI3Kα-Wild Type) cells, 2 hours compound incubation, PDGF-BB stimulated. It is filed as cell-based, human. The method, boiled down:
as §1
On the technique in general: TR-FRET usually uses a lanthanide donor and a delayed reading to cut background.

The structures appear in SMILES notation. pIC50: −log10 of the molar value.

With `Cc1cc([C@@H](C)Nc2ccc(Cl)nc2C(=O)NS(C)(=O)=O)c2nc(N3CCC(c4ncc(C(F)(F)F)cn4)CC3)n(C)c(=O)c2c1` [Compound 630, (R)-6-chloro-3-((1-(3,6-dimethyl-4-oxo-2-(4-(5-(trifluoromethyl)pyrimidin-2-yl)piperidin-1-yl)-3,4-dihydroquinazolin-8-yl)ethyl)amino)-N-(methylsulfonyl) picolinamide], the values for the pIC50 in experiment [1] and in experiment [2] were 6.00 to 6.30 and at most 5.30, respectively.

In the case of `Cc1cc([C@@H](C)Nc2ccc(Cl)nc2C(=O)NS(C)(=O)=O)c2nc(N3CC[C@H](Oc4cnc(C)cn4)C3)n(C)c(=O)c2c1` [Compound 631, 6-chloro-3-(((R)-1-(3,6-dimethyl-2-((S)-3-((5-methylpyrazin-2-yl)oxy)pyrrolidin-1-yl)-4-oxo-3,4-dihydroquinazolin-8-yl)ethyl)amino)-N-(methylsulfonyl) picolinamide], the pIC50 in experiment [1] was over 6.60; in experiment [2] it was 5.30 to 6.00.

As for `Cc1cc([C@@H](C)Nc2ccc(Cl)nc2C(=O)NS(C)(=O)=O)c2nc(N3C[C@@H]4[C@H](C3)[C@H]4n3ncc(F)c3C)n(C)c(=O)c2c1` [Compound 632, 6-chloro-3-(((R)-1-(2-((1R,5S,6S)-6-(4-fluoro-5-methyl-1H-pyrazol-1-yl)-3-azabicyclo[3.1.0]hexan-3-yl)-3,6-dimethyl-4-oxo-3,4-dihydroquinazolin-8-yl)ethyl)amino)-N-(methylsulfonyl) picolinamide], the pIC50 was 6.30 to 6.60 in experiment [1] and 5.30 to 6.00 in experiment [2].

In the case of `Cc1cc([C@@H](C)Nc2ccc(Cl)nc2C(=O)NS(C)(=O)=O)c2nc(N3CCN(c4cc(C)n(C)n4)CC3)n(C)c(=O)c2c1` [Compound 634, (R)-6-chloro-3-((1-(2-(4-(1,5-dimethyl-1H-pyrazol-3-yl)piperazin-1-yl)-3,6-dimethyl-4-oxo-3,4-dihydroquinazolin-8-yl)ethyl)amino)-N-(methylsulfonyl) picolinamide], the pIC50 in experiment [1] was over 6.60; in experiment [2] it was at most 5.30.

`COc1ccc(N2CCN(c3nc4c([C@@H](C)Nc5ccc(Cl)nc5C(=O)NS(C)(=O)=O)cc(C)cc4c(=O)n3C)CC2)cn1` [Compound 635, (R)-6-chloro-3-((1-(2-(4-(6-methoxypyridin-3-yl)piperazin-1-yl)-3,6-dimethyl-4-oxo-3,4-dihydroquinazolin-8-yl)ethyl)amino)-N-(methylsulfonyl) picolinamide]: the negative-log IC50 (pIC50) is 6.30 to 6.60 in experiment [1] and 5.30 to 6.00 in experiment [2].

Regarding `COc1ccc(N2C[C@@H]3C[C@H]2CN3c2nc3c([C@@H](C)Nc4ccc(Cl)nc4C(=O)NS(C)(=O)=O)cc(C)cc3c(=O)n2C)cn1` [Compound 636, 6-chloro-3-(((R)-1-(2-((1S,4S)-5-(6-methoxypyridin-3-yl)-2,5-diazabicyclo [2.2.1]heptan-2-yl)-3,6-dimethyl-4-oxo-3,4-dihydroquinazolin-8-yl)ethyl)amino)-N-(methylsulfonyl) picolinamide], the pIC50 is 6.30 to 6.60 in experiment [1] and at most 5.30 in experiment [2].

In the case of `COc1cc(N2C[C@@H]3C[C@H]2CN3c2nc3c([C@@H](C)Nc4ccc(Cl)nc4C(=O)NS(C)(=O)=O)cc(C)cc3c(=O)n2C)ccn1` [Compound 637, 6-chloro-3-(((R)-1-(2-((1S,4S)-5-(2-methoxypyridin-4-yl)-2,5-diazabicyclo [2.2.1]heptan-2-yl)-3,6-dimethyl-4-oxo-3,4-dihydroquinazolin-8-yl)ethyl)amino)-N-(methylsulfonyl) picolinamide], the values for the pIC50 in experiment [1] and in experiment [2] were 6.30 to 6.60 and at most 5.30, respectively.

With `COc1ccc(N2C[C@H]3C[C@@H]2CN3c2nc3c([C@@H](C)Nc4ccc(Cl)nc4C(=O)NS(C)(=O)=O)cc(C)cc3c(=O)n2C)cn1` [Compound 638, 6-chloro-3-(((R)-1-(2-((1R,4R)-5-(6-methoxypyridin-3-yl)-2,5-diazabicyclo [2.2.1]heptan-2-yl)-3,6-dimethyl-4-oxo-3,4-dihydroquinazolin-8-yl)ethyl)amino)-N-(methylsulfonyl) picolinamide], the negative logarithm of the IC50 (pIC50) in experiment [1] is 6.30 to 6.60; in experiment [2] it was at most 5.30.

Regarding `COc1cc(N2C[C@H]3C[C@@H]2CN3c2nc3c([C@@H](C)Nc4ccc(Cl)nc4C(=O)NS(C)(=O)=O)cc(C)cc3c(=O)n2C)ccn1` [Compound 639, 6-chloro-3-(((R)-1-(2-((1R,4R)-5-(2-methoxypyridin-4-yl)-2,5-diazabicyclo [2.2.1]heptan-2-yl)-3,6-dimethyl-4-oxo-3,4-dihydroquinazolin-8-yl)ethyl)amino)-N-(methylsulfonyl) picolinamide], the pIC50 was 6.00 to 6.30 in experiment [1] and at most 5.30 in experiment [2].

Take `COc1cc(C2CCN(c3nc4c([C@@H](C)Nc5ccc(Cl)nc5C(=O)NS(C)(=O)=O)cc(C)cc4c(=O)n3C)CC2)ccn1` [Compound 640, (R)-6-chloro-3-((1-(2-(4-(2-methoxypyridin-4-yl)piperidin-1-yl)-3,6-dimethyl-4-oxo-3,4-dihydroquinazolin-8-yl)ethyl)amino)-N-(methylsulfonyl) picolinamide]: the results for the pIC50 in experiment [1] and in experiment [2] were 6.30 to 6.60 and at most 5.30, respectively.

Take `COc1cnc([C@H]2[C@@H]3CN(c4nc5c([C@@H](C)Nc6ccc(Cl)nc6C(=O)NS(C)(=O)=O)cc(C)cc5c(=O)n4C)C[C@@H]32)cn1` [Compound 641, 6-chloro-3-(((R)-1-(2-((1R,5S,6R)-6-(5-methoxypyrazin-2-yl)-3-azabicyclo[3.1.0]hexan-3-yl)-3,6-dimethyl-4-oxo-3,4-dihydroquinazolin-8-yl)ethyl)amino)-N-(methylsulfonyl) picolinamide]: the pIC50 was 6.30 to 6.60 in experiment [1] and at most 5.30 in experiment [2].

Take `Cc1cc([C@@H](C)Nc2ccc(Cl)nc2C(=O)NS(C)(=O)=O)c2nc(N3C[C@@H]4[C@H](C3)[C@H]4c3nc(C)n(C(F)F)n3)n(C)c(=O)c2c1` [Compound 642, 6-chloro-3-(((R)-1-(2-((1R,5S,6R)-6-(1-(difluoromethyl)-5-methyl-1H-1,2,4-triazol-3-yl)-3-azabicyclo[3.1.0]hexan-3-yl)-3,6-dimethyl-4-oxo-3,4-dihydroquinazolin-8-yl)ethyl)amino)-N-(methylsulfonyl) picolinamide]: the pIC50 in experiment [1] is 6.30 to 6.60; in experiment [2] it was at most 5.30.

On to `Cc1cc([C@@H](C)Nc2ccc(Cl)nc2C(=O)NS(C)(=O)=O)c2nc(N3C[C@@H]4[C@H](C3)[C@H]4c3nc(C)nn3C(F)F)n(C)c(=O)c2c1` [Compound 643, 6-chloro-3-(((R)-1-(2-((1R,5S,6R)-6-(1-(difluoromethyl)-3-methyl-1H-1,2,4-triazol-5-yl)-3-azabicyclo[3.1.0]hexan-3-yl)-3,6-dimethyl-4-oxo-3,4-dihydroquinazolin-8-yl)ethyl)amino)-N-(methylsulfonyl) picolinamide], for which the values for the pIC50 in experiment [1] and in experiment [2] were 6.30 to 6.60 and at most 5.30, respectively.

As to `Cc1cc([C@@H](C)Nc2ccc(Cl)nc2C(=O)NS(C)(=O)=O)c2nc(N3C[C@@H]4[C@H](C3)[C@H]4c3nnc(C)n3C(F)F)n(C)c(=O)c2c1` [Compound 644, 6-chloro-3-(((R)-1-(2-((1R,5S,6R)-6-(4-(difluoromethyl)-5-methyl-4H-1,2,4-triazol-3-yl)-3-azabicyclo[3.1.0]hexan-3-yl)-3,6-dimethyl-4-oxo-3,4-dihydroquinazolin-8-yl)ethyl)amino)-N-(methylsulfonyl) picolinamide], the pIC50 was 6.30 to 6.60 in experiment [1] and at most 5.30 in experiment [2].

Turning to `Cc1cc([C@@H](C)Nc2ccc(Cl)nc2C(=O)NS(C)(=O)=O)c2nc(N3CCN(c4ccnc(C(F)F)n4)CC3)n(C)c(=O)c2c1` [Compound 649, (R)-6-chloro-3-((1-(2-(4-(2-(difluoromethyl)pyrimidin-4-yl)piperazin-1-yl)-3,6-dimethyl-4-oxo-3,4-dihydroquinazolin-8-yl)ethyl)amino)-N-(methylsulfonyl) picolinamide], the values for the negative-log IC50 (pIC50) in experiment [1] and in experiment [2] were over 6.60 and 5.30 to 6.00, respectively.

Turning to `Cc1cc([C@@H](C)Nc2ccc(Cl)nc2C(=O)NS(C)(=O)=O)c2nc(N3C[C@@H]4[C@H](C3)[C@H]4c3n[nH]cc3C)n(C)c(=O)c2c1` [Compound 651, 6-chloro-3-(((R)-1-(3,6-dimethyl-2-((1R,5S,6R)-6-(4-methyl-1H-pyrazol-3-yl)-3-azabicyclo[3.1.0]hexan-3-yl)-4-oxo-3,4-dihydroquinazolin-8-yl)ethyl)amino)-N-(methylsulfonyl) picolinamide], the pIC50 in experiment [1] was 6.30 to 6.60; in experiment [2] it was 5.30 to 6.00.

Turning to `Cc1cc([C@@H](C)Nc2ccc(Cl)nc2C(=O)NS(C)(=O)=O)c2nc(N3CCN(c4cnc(C)c(F)c4)CC3)n(C)c(=O)c2c1` [Compound 652, (R)-6-chloro-3-((1-(2-(4-(5-fluoro-6-methylpyridin-3-yl)piperazin-1-yl)-3,6-dimethyl-4-oxo-3,4-dihydroquinazolin-8-yl)ethyl)amino)-N-(methylsulfonyl) picolinamide], the figures for the negative-log IC50 (pIC50) in experiment [1] and in experiment [2] were 6.30 to 6.60 and 5.30 to 6.00, respectively.

Consider `Cc1cc([C@@H](C)Nc2ccc(Cl)nc2C(=O)NS(C)(=O)=O)c2nc(N3C[C@@H]4[C@H](C3)[C@H]4c3ncc(C)o3)n(C)c(=O)c2c1` [Compound 653, 6-chloro-3-(((R)-1-(3,6-dimethyl-2-((1R,5S,6R)-6-(5-methyloxazol-2-yl)-3-azabicyclo[3.1.0]hexan-3-yl)-4-oxo-3,4-dihydroquinazolin-8-yl)ethyl)amino)-N-(methylsulfonyl) picolinamide], for which the pIC50 in experiment [1] is 6.30 to 6.60; in experiment [2], 5.30 to 6.00.

For the origin of these results see patent publication US12281122B1, “PI3K inhibitors” (Cogent Biosciences, Inc., priority 2023, dated 2025).
